Measurements as given in article PMC11921695 (BMC Cancer, 2025).
Where “and” joins values, the source holds several entries; their conditions need not be identical. Identical values can stand only once.

Columns and labels:
[1] = test system: patients with HIV-associated KS; test: Phase I 3 + 3 dose escalation: dose limiting toxicity, MTD/RP2D; type: in vivo, human; conditions: for occurrence of DLT: cycle 1
Experimental: The trial used a standard 3 + 3 rule-based dose escalation algorithm with four pre-defined dose levels. […] A dose of 75 mg once daily (od) provided a dose level below the starting dose should de-escalation be required.
The aim of the phase I component of the trial was to determine the maximum tolerated dose (MTD) of selumetinib in combination with ART, which was defined as the highest dose producing one or fewer DLT in six patients. This dose was defined as the recommended phase II dose (RP2D) for the subsequent phase II component of the trial. Patients recruited to phase I who received the RP2D as their initial dose were included in the phase II population for response analysis. Having completed six cycles of treatment, patients who responded to treatment were permitted to continue selumetinib with ART at the discretion of the treating physician. Patients concurrently received best supportive therapy according to institutional guidelines.
The occurrence of DLTs was used to evaluate the safety of each dose level and thereby determine the MTD which defined the RP2D.
• Haematological. • Absolute neutrophil count (ANC) < 1.0 × 10^9/L. • Febrile neutropenia (ANC < 1.0 × 10^9/L, fever ≥ 38 °C). • Platelets < 50 × 10^9/L. • Bleeding thought to be due to thrombocytopenia. • Non-haematological. • Diarrhoea ≥ grade 3 despite optimal loperamide use. • Rash ≥ grade 3. • Any grade 2 toxicity unacceptable to the patient that required a dose reduction. • Missing > 30% of treatment doses for toxicity reasons. • Any other grade 3 or 4 effects thought to be treatment related. • HIV control. • Clinically necessary change in ART drug levels due to detrimental alteration in HIV viral load and/or CD4 cell count.

[2] = test system: HIV-associated Kaposi sarcoma; test: Objective response by ACTG criteria; type: in vivo, human; conditions: for objective response (OR) rate: 90% CI
Experimental: For registered patients, pre-treatment evaluation included: physical examination, ophthalmologic exam, electrocardiogram (ECG), echocardiogram or multi-gated acquisition (MUGA) scan, chest x-ray and CT thorax, abdomen, and pelvis. Adverse events according to CTCAE version 4.0 [18] were recorded every three weeks. The burden of cutaneous disease was estimated by summed tumour area sizes (mm^2) from photographic image measurements and evaluated at baseline using ACTG criteria (Supplementary Appendix 3), with subsequent formal response assessments including clinical photographs taken every 6 weeks for 12 months or until disease progression. For patients with visceral or extensive disease, repeat CT scans at these time points were also performed.
OR rate was reported as the proportion of patients who achieved OR out of the total per-protocol population, with 90% confidence intervals (CI). Sensitivity analyses were also performed to compare this OR rate with ones that used the MTD population and the any-dose population as the denominator. The OR rate was also calculated for those who received at least six cycles of selumetinib.
The absence of any detectable residual disease, including tumour-associated oedema, persisting for at least 4 weeks.
A 50% or greater decrease in the number and/or size of previously existing lesions (skin, oral, measurable or evaluable visceral disease) lasting for at least 4 weeks without the appearance of new lesions or the appearance or worsening of tumour-associated oedema or effusions, […] of 25% or more in the product of bi-dimensional diameters of any indicator lesion.
Any response not meeting the criteria for progression or PR.

[3] = test system: HIV-associated Kaposi sarcoma; test: Progression-free survival (Kaplan-Meier); type: in vivo, human
[4] = test system: patients with HIV-associated KS; test: Number of selumetinib cycles completed and reasons for discontinuation; type: in vivo; conditions: 6/16 participants
Excerpt: Reasons for discontinuation were reported in relation to the number of cycles received.

HIV-1 = test: HIV control: HIV-1 viral load; type: in vivo, human; conditions: during the trial, patients receiving selumetinib + ART
Experimental: HIV control was assessed by plotting longitudinal HIV-1 viral load and CD4 cell counts over time for the per-protocol population. Due to missing data at the pre-treatment cycle 1 […] visit, the CD4 cell counts from the screening visit were used as the baseline comparator. Paired t-tests were done to test the difference between CD4 cell counts at screening, cycle 3 day 22 and cycle 6 day 22. Due to multiple testing, a Bonferroni correction was applied to the significance threshold, calculated as 0.05 ÷ 2 = 0.025.
HIV-1 viral load and CD4 counts were measured as per standard of care at hospital sites. To measure the concentration of angiogenesis markers, 8.5 ml blood was collected in BD vacutainer no-additive serum tubes. Samples were kept at room temperature for 30 minutes before centrifugation at 2000 g for 20 minutes at room temperature. Serum samples were then stored at -80 °C prior to analysis. Serum Ang-1, Ang-2 and TIE levels were assessed using commercial ELISAs (Thermo Fisher Scientifc hAng-1 (EHANGPT1), R&D DuoSet Ang-2 (DY623), eBioscience hTIE2 (BMS2042)), according to manufacturer instructions at laboratories at the University of Sheffield.

[5] = test system: patients with advanced cancer; design: method as in Banerji, et al.; conditions: ref Banerji, et al., cited from earlier work
[6] = test system: non-small cell lung cancer; design: method as in SCART protocol 7.3.1; conditions: combination arm; ref SCART protocol 7.3.1; cited from earlier work
[7] = test system: embryofoetal development and survival; design: method as in SCART protocol 7.3.1; conditions: at dose levels that do not induce maternal toxicity in mice; ref SCART protocol 7.3.1; cited from earlier work
[8] = any dose/safety population, 16 patients
[9] = per protocol population, 12 patients

**Q.** Which “nature of the DLT” value ([1]; 75 mg bd, single event, possibly related, resolved with no sequelae) does the source give for `Cn1cnc2c(F)c(Nc3ccc(Br)cc3Cl)c(C(=O)NOCCO)cc21` [selumetinib, 6-(4-Bromo-2-chloro-phenylamino)-7-fluro-3-methyl-3 H-benzoimidazole-5-carboxylic acid (2-hydroxy-ethoxy)-amide hydrogen sulphate] here?
**A.** The value was “asymptomatic concurrent increase in serum amylase and raised eosinophils, both grade 3”.

**Q.** And the “occurrence of DLT” value ([1]; four patients starting 50 mg bd)?
**A.** The value was “None”.

**Q.** What about the “maximum tolerated dose (MTD) / recommended phase II dose (RP2D)” value ([1]; selumetinib orally in combination with ART, highest dose producing one or fewer DLT in six patients) of the same compound?
**A.** Its value is 75 mg bd.

**Q.** What about the “occurrence of DLT” value ([1]; six phase I patients starting 75 mg bd) of the same compound?
**A.** Its value is “one and 1 out of 6”.

**Q.** And the “objective response (OR) rate” value ([2]; MTD population (sensitivity analysis))?
**A.** Its value is 6.7%.

**Q.** And the “objective response (OR) rate” value ([2]; any-dose/safety population (sensitivity analysis))?
**A.** Its value is 6.3%.

**Q.** And the “clinical benefit rate (CR, PR and SD)” value ([2]; any-dose/safety population, 16 patients)?
**A.** Its value is 75%.

**Q.** What about the “objective response (OR) rate” value ([2]; per-protocol population, 12 patients, 75 mg bd + ART) of the same compound?
**A.** Its value is 8.3%.

**Q.** What about the response duration ([2]; the only patient with PR (deepened to CR after discontinuing at 3 cycles)) of the same compound?
**A.** Its response duration is 201 days.

**Q.** What about the “3-month PFS (90% CI)” value ([3]; MTD population, 15 patients) of the same compound?
**A.** The value was 66%(42%,82%).

**Q.** What about the “6-month PFS (90% CI)” value ([3]; MTD population, 15 patients) of the same compound?
**A.** The value was 44% (22%, 64%).

**Q.** What about the “Median PFS in months (90% CI)” value ([3]; MTD population, 15 patients) of the same compound?
**A.** Its value is 5.53 (2.53, 12.80) months.

**Q.** What about the “3-month PFS (90% CI)” value [3, 8] of the same compound?
**A.** Its value is 62%(39%,78%).

**Q.** And the “6-month PFS (90% CI)” value [3, 8]?
**A.** The value was 41% (21%, 61%).

**Q.** And the “Median PFS in months (90% CI)” value [3, 8]?
**A.** Its value is 4.14 (2.53, 12.80) months.

**Q.** What about the “3-month PFS (90% CI)” value [3, 9] of the same compound?
**A.** Its value is 57%(31%,76%).

**Q.** And the “Median PFS in months (90% CI)” value [3, 9]?
**A.** The value was 3.42 (1.74, -^$) months.

**Q.** What about the “participants who discontinued selumetinib due to toxicity before completing six cycles” value [4] of the same compound?
**A.** The value was 37.5%.

**Q.** What about the HIV-1 viral load (HIV-1) of the same compound?
**A.** The HIV-1 viral load was “remained undetectable”.

**Q.** What about the “dose identified as both safe and tolerable” value ([5]; selumetinib monotherapy) of the same compound?
**A.** Its value is 75 mg bd.

**Q.** And the “mean decrease in left ventricular ejection fraction (LVEF)” value ([5]; week 8, range -25% to +10%)?
**A.** The value was -7.2%.

**Q.** What about the “febrile neutropenia CTCAE grade 3, patients” value [6] of the same compound?
**A.** The value was 6/44.

**Q.** And the “febrile neutropenia CTCAE grade 4, patients” value [6]?
**A.** Its value is 2/44.

**Q.** What about the reproductive toxicology finding [7] of the same compound?
**A.** Its reproductive toxicology finding is “adverse effects on embryofoetal”.
